Assay results from US4466970A, “Dioxocyclobutene compounds” (Smith Kline & French Laboratories Limited, priority 1982, dated 1984).

Test system: histamine H2 -receptors
Experiment: Heidenhain pouch dog: inhibition of histamine-stimulated acid secretion
Assay type: in vivo
Conditions: intravenous administration; dose levels adjusted to produce similar peak responses

With `Nc1c(NCCCOc2cc(CN3CCCCC3)ccn2)c(=O)c1=O` [Example 1, 1-[3-[4-(Piperidinomethyl)pyrid-2-yloxy]prop-1-ylamino]-2-aminocyclobut-1-ene-3,4-dione] the “duration of action relative to cimetidine” value was “significant increase in duration of action”.
